Test results: US9556113B2, “Combination uses of dichloroacetate and oxamate, and their prodrugs, for cancer treatment” (The South Dakota Board of Regents, priority 2014, dated 2017)

Tested on: HPV+E6E7 Ras tumor (E6/E7/Ras MOEs cells)
Assay: Tumor response to cisplatin/radiation therapy (CRT), HPV positive HNSCC mouse model
Assay type: in vivo, C57Bl/6 mice
Details: for tumor growth with CRT compared to DCA plus oxamate (FIG. 8A/19): prodrug 7.6 mg/mouse i.p. weekdays, control DCA 6 mg/mouse + oxamate 2 (2.2) mg/mouse, all with CRT
Experimental: FIG. 7 illustrates the effects of DCA plus oxamate on tumor growth (A) or on survival (B) with HPV+ model of HNSCC in wild-type C57Bl/6 mice. All mice received 3 rounds of cisplatin (0.132 mg/mouse) plus radiation (8 Gy/mouse) treatment (Tx) at weekly intervals starting […] after tumor initiation. Mice receiving DCA (6 mg/mouse) plus oxamate (15 mg/mouse) were treated every weekday, starting with the first chemoradiation treatment by i.p. injection.
FIG. 8 illustrates a comparison of prodrugs to DCA plus oxamate on tumor growth (A) or on survival (B) with HPV+ model of HNSCC in wild-type C57Bl/6 mice. All mice received 3 rounds of CRT [cisplatin (0.132 mg/mouse) plus radiation (8 Gy/mouse) treatment (Tx) at weekly intervals starting 11 days after tumor initiation]. Mice receiving DCA (6 mg/mouse) plus oxamate (2.2 mg/mouse) were treated every weekday starting with the first chemoradiation treatment by i.p. injection. Mice treated with AT-N4-001 or AT-N4-002 prodrugs (7.6 mg/mouse) were treated on the same schedule as mice treated with DCA+oxamate.
FIG. 18. The effects of DCA, oxamate, DCA plus oxamate on the responses of HPV+E6E7 Ras tumor to CRT. One million E6/E7/Ras MOEs cells were injected subcutaneously into the rear leg of wild-type C57Bl/6 mice. After 11 days, a treatment with DCA (6 mg/mouse) and oxamate (15 mg/mouse) were injected daily by i.p. on weekdays for the remainder of the experiment. All mice received three rounds of treatment with CRT (0.132 mg/mouse cisplatin and 8 Gy radiation, weekly starting at day 11). Tumor volume is mm^3.
FIG. 19 depicts the effects of DCA plus oxamate vs the effects of prodrug 1 or prodrug 2 on the responses of HPV+E6E7 Ras tumor to CRT. Tumors were initiated by injecting 0.5×10^6 E6/E7/Ras MOEs cells. After 11 days, a treatment with DCA (6 mg/mouse) plus oxamate (2 mg/mouse), or prodrug 1 (7.6 mg/mouse), or prodrug 2 (7.6 mg/mouse) was initiated daily by i.p. on weekdays. The doses of DCA and oxamate were equal molar equivalents as would be released from the prodrugs. All mice received three rounds of treatment with CRT (0.132 mg/mouse cisplatin and 8 Gy radiation, weekly starting at day 11). Tumor volume is in mm^3.
The effects of various treatments on tumor responses were carried out by examining whether the treatment could improve tumor's response to CRT with a HPV positive HNSCCs mouse model. CRT is a standard treatment for HPV-positive HNSCC in the clinic (46). […] Applicants also used this model to investigate the effects of lactate on CRT-induced immune-mediated cancer clearance (46) and DCA's effect on the tumor's response to CRT (unpublished data). The literature reported dosages of DCA and oxamate were used (6,23,52,53)(41).
To study the effects of the prodrugs on tumor growth in vivo, C57Bl/6 immune-competent mice implanted with E6/E7/Ras MOEs cells were used as described previously (46). All experiments were performed in accordance with institutional and national guidelines and regulations with the protocol approved by the Animal Care and Use Committee at Sanford Research. Briefly, 1×10^6 tumor HPV+HNSCC cells were injected into the right subcutaneous flank of syngeneic male C57Bl/6 mice. Eleven days after tumor initiation, treatment was initiated daily on weekdays by i.p. injection of vehicle, DCA, Oxamate, DCA+oxamate, prodrug 1, or prodrug 2. All mice received three rounds of treatment with cisplatin/radiation therapy (CRT: 0.132 mg/mouse cisplatin and 8 Gy radiation, weekly starting at day 11). Tumor dimensions were measured weekly to monitor growth. Mice with tumors reaching a volume of 3000 mm^3 or becoming substantially emaciated were euthanized.
To study the effects of the new prodrugs on tumor growth in vivo, C57Bl/6 immune-competent mice were used. Tumors were established on the right flank of the leg. After 11 days, treatment was initiated with daily i.p. injection of vehicle, AT-N4-001, or AT-N4-002. […]

## NC(=O)C(=O)OC(COC(=O)C(Cl)Cl)COC(=O)C(Cl)Cl [AT-N4-001, 2-(2-Amino-2-oxoacetoxy)propane-1,3-diyl bis(2,2-dichloroacetate)]
  tumor growth with CRT compared to DCA plus oxamate (FIG. 8A/19): initially reduced tumor growth compared to CRT+DCA+oxamate control, but this was not maintained over longer times
Listed as prodrug 1
  tumor growth with CRT compared to DCA plus oxamate (FIG. 8A/19): about equally potent as that of the combination

## NC(=O)C(=O)OCC(COC(=O)C(Cl)Cl)OC(=O)C(Cl)Cl (centres unmarked) [AT-N4-002, 3-(2-amino-2-oxoacetoxy)propane-1,2-diyl bis(2,2-dichloroacetate)]
CRT + 7.6 mg/mouse i.p.
  long-term survival (FIG. 8B): ~25%
  tumor growth with CRT compared to DCA plus oxamate (FIG. 8A/19): reduced average tumor growth compared to the control during the entire experiment
Listed as Prodrug 2
  tumor growth with CRT compared to DCA plus oxamate (FIG. 8A/19): more effective than DCA plus oxamate during the entire experiment
